Experiments:
Cathepsin B [1] = biological target: T1, Cathepsin B (Homo sapiens, UniProt P07858); experiment: Kinetic parameter (Ki mM) was evaluated for the inactivation of cathepsin B
Papain [2] = biological target: T2, Papain (Carica papaya, UniProt P00784); experiment: Kinetic parameter (Ki 1/min) was evaluated for the inactivation of papain
T2 sequence (P00784 whole entry): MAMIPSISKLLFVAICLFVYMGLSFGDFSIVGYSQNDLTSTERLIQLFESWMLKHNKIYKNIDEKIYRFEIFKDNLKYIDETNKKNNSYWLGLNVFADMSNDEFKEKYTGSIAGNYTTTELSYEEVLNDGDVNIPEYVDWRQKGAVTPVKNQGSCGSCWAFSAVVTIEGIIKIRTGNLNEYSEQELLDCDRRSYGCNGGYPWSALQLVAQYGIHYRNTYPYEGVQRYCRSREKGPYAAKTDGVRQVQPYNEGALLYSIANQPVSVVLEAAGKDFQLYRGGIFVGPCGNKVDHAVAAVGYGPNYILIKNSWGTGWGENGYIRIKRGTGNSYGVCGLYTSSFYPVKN

Papain [3] = biological target: T2, Papain; experiment: Kinetic parameter (Ki mM) was evaluated for the inactivation of papain
Cathepsin B [4] = biological target: T1, Cathepsin B; experiment: Kinetic parameter (kinact 1/min) was evaluated for the inactivation of cathepsin B

`O=C(N[C@@H](Cc1ccccc1)[C@H]1CO1)OCc1ccccc1` gave a Ki (Cathepsin B [1]) of 367 µM, a Ki (Papain [2]) of 0.208 min⁻¹ and a Ki (Papain [3]) of 574 µM. It also gave a kinact (Cathepsin B [4]) of 0.087 min⁻¹.

Reference: ChEMBL document CHEMBL1128787, “Design of a new selective cysteine protease inactivator and its mechanistic implications” (Bioorg Med Chem Lett, 1995)
